In patent publication US20240391936A1, “TETRAHYDROTHIENO PYRIDINE DERIVATIVES AS DDRS INHIBITORS” (CHIESI FARMACEUTICI S.P.A., priority 2021, published 2024):

How the values were obtained:
DDR2 [1] = target: T1, DDR2 (Homo sapiens, UniProt Q16832); assay: DDR2 cell based assay (phospho-ELISA in HEK293T-DDR2 recombinant cells); set-up: expressed in transfected cells; host or cells: HEK293T-DDR2 recombinant cells; conditions: bovine Type II Collagen 50 μg/ml
T1 sequence (Q16832 22-855): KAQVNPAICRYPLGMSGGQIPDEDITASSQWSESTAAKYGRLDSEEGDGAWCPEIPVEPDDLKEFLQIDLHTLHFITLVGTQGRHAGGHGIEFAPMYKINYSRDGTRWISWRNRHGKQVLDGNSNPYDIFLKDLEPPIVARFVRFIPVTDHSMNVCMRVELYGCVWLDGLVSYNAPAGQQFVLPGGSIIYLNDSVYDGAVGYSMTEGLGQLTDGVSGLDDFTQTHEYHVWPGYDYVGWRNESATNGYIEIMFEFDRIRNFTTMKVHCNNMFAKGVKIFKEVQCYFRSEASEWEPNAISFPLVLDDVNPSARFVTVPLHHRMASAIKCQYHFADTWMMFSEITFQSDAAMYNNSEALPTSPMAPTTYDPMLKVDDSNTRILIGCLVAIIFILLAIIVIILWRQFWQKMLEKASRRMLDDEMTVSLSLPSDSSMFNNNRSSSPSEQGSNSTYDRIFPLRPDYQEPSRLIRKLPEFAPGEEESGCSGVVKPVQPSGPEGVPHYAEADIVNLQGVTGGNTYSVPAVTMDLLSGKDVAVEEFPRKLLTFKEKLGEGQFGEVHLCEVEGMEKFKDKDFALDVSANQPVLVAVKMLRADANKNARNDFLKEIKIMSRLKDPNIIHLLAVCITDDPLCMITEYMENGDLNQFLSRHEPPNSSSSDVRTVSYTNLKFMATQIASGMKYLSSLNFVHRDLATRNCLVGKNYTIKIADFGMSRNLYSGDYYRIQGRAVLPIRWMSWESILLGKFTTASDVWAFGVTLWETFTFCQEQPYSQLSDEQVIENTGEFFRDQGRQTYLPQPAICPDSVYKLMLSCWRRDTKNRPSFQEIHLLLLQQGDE
Description: The inhibition of DDR2 phosphorylation by compounds was evaluated in HEK293T-DDR2 recombinant cells by phospho-ELISA assay. Briefly, HEK293T-DDR2 cells were seeded in poly-D-lysine-coated 24-well plates at a density of 250.000 cells/well and incubated for 1.5 hours at 37° C. and 5% CO2 in DMEM+10% FBS. After that, the medium was changed to serum-free DMEM and cells were incubated for 3 hours. Then. test compounds were added at different concentrations 30 minutes before stimulation with bovine Type II Collagen at 50 μg/ml for further 3 hours. For DDR2 phospho-ELISA assay (DuoSet IC Human Phospho-DDR2; R&D Systems), protein extracts were obtained by adding 60 μl/well of lysis buffer prepared according to the manufacturer's instructions. Protein concentration in the samples was determined by BCA assay and the levels of phospho-DDR2 were determined following R&D Systems indications. Raw data were normalized to maximal inhibition control (0% for normalization) and positive control (100% for normalization; cells treated with […] collagen II) and IC50 parameters were calculated in GraphPad Prism 8.0 software, using sigmoidal dose-response curve fitting with variable slope.

DDR1 [2] = target: T2, DDR1 (Homo sapiens, UniProt Q08345); assay: DDR1 binding assay (LanthaScreen Europium Kinase Binding assay); set-up: purchased Carna Biosciences; conditions: binding assay, 5 nM DDR1, 20 nM Kinase Tracer 178; Ki from IC50 by Cheng-Prusoff; read-out: Ki DDR1
T2 sequence (Q08345 19-913): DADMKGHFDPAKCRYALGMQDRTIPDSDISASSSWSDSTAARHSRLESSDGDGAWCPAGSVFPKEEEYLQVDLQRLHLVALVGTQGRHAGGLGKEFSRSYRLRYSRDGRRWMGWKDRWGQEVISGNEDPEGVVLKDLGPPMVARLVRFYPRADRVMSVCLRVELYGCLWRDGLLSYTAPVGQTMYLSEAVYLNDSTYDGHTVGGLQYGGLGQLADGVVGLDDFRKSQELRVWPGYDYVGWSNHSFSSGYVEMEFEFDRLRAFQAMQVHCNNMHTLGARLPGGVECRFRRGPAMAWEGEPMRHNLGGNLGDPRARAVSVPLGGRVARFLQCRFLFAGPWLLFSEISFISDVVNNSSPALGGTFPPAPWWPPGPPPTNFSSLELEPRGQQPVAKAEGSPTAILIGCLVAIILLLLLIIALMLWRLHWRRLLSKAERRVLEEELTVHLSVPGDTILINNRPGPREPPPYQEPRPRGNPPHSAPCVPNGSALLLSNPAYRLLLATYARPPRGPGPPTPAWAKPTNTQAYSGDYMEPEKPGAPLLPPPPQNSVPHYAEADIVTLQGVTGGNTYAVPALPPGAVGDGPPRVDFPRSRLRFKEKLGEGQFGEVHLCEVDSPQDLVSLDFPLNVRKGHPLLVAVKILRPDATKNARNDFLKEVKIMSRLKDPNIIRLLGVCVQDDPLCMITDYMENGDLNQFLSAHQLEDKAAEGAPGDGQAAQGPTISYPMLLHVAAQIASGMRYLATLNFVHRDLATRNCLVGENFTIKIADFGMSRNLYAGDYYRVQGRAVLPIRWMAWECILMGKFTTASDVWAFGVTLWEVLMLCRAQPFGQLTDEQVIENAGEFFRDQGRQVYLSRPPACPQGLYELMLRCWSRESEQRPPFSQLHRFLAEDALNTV
Method in brief: (§1)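 TR-FRET tracer-displacement format: 665/615 nm emission ratio (340 nm excitation) gave IC50 by 4-parameter fit, then Ki via Cheng-Prusoff. Each kinase at 5 nM with 2 nM Eu-anti-GST antibody and Tracer 178 (DDR1 20 nM, DDR2 10 nM), 1 h, room temperature, HEPES pH 7.5 buffer.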

DDR2 [3] = target: T1, DDR2; assay: DDR2 binding assay (LanthaScreen Europium Kinase Binding assay); set-up: purchased Life Technologies; conditions: binding assay, 5 nM DDR2, 10 nM Kinase Tracer 178; Ki from IC50 by Cheng-Prusoff; read-out: Ki DDR2
Method in brief: as §1

DDR1 [4] = target: T2, DDR1; assay: DDR1 cell based assay (PathHunter U2OS DDR1 assay); set-up: host or cells: U2OS-DDR1 (PathHunter); conditions: U2OS-DDR1 cells, bovine Type II Collagen 20 μg/ml
Method in brief: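 Receptor activation measured by enzyme-fragment complementation luminescence in engineered U2OS cells. Compound added 30 min before overnight challenge with 20 μg/ml bovine collagen II; data scaled between vehicle and collagen-stimulated controls, IC50 derived by four-parameter variable-slope fitting.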

For `O=C(Nc1cccc(OC(F)(F)F)c1)c1csc2c1CCN(Cc1cnc3[nH]ccc3c1)C2` [Example 72, 6-((1H-pyrrolo[2,3-b]pyridin-5-yl)methyl)-N-(3-(trifluoromethoxy)phenyl)-4,5,6,7-tetrahydrothieno[2,3-c]pyridine-3-carboxamide], the IC50 (DDR2 [1]) was < 25 nM, the Ki (DDR1 [2]) was < 25 nM and the Ki (DDR2 [3]) was < 25 nM. For the same compound, the IC50 (DDR1 [4]) was < 25 nM.

In the case of `O=C(Nc1cc(F)cc(C(F)(F)F)c1)c1csc2c1CCN(Cc1cnc3[nH]ccc3c1)C2` [Example 73, 6-((1H-pyrrolo[2,3-b]pyridin-5-yl)methyl)-N-(3-fluoro-5-(trifluoromethyl)phenyl)-4,5,6,7-tetrahydrothieno[2,3-c]pyridine-3-carboxamide], the IC50 (DDR2 [1]) is reported as < 25 nM, the Ki (DDR1 [2]) is reported as < 25 nM and the Ki (DDR2 [3]) is reported as 25 to 50 nM. The IC50 (DDR1 [4]) was < 25 nM.

`Cc1cn(-c2cc(NC(=O)c3csc4c3CCN(C(=O)c3cnc5ccccn35)C4)cc(C(F)(F)F)c2)cn1` [Example 74, 6-(imidazo[1,2-a]pyridine-3-carbonyl)-N-(3-(4-methyl-1H-imidazol-1-yl)-5-(trifluoromethyl)phenyl)-4,5,6,7-tetrahydrothieno[2,3-c]pyridine-3-carboxamide] was tested, and the IC50 (DDR2 [1]) was < 25 nM, the Ki (DDR1 [2]) was < 25 nM and the Ki (DDR2 [3]) was < 25 nM. For the same compound, the IC50 (DDR1 [4]) was < 25 nM.

`Cc1ccc(-n2nc(C(C)(C)C)cc2NC(=O)c2csc3c2CCN(Cc2cnc4[nH]ncc4c2)C3)cc1` [Example 75, 6-((1H-pyrazolo[3,4-b]pyridin-5-yl)methyl)-N-(3-(tert-butyl)-1-(p-tolyl)-1H-pyrazol-5-yl)-4,5,6,7-tetrahydrothieno[2,3-c]pyridine-3-carboxamide] was tested, and the IC50 (DDR2 [1]) was < 25 nM, the Ki (DDR1 [2]) was < 25 nM and the Ki (DDR2 [3]) was < 25 nM. For the same compound, the IC50 (DDR1 [4]) was < 25 nM.

In the case of `Cc1n[nH]c2ncc(CN3CCc4c(C(=O)Nc5cc(C(C)(C)C)nn5C)csc4C3)cc12` [Example 78, N-(3-(tert-butyl)-1-methyl-1H-pyrazol-5-yl)-6-((3-methyl-1H-pyrazolo[3,4-b]pyridin-5-yl)methyl)-4,5,6,7-tetrahydrothieno[2,3-c]pyridine-3-carboxamide], the IC50 (DDR2 [1]) is reported as < 25 nM, the Ki (DDR1 [2]) is reported as < 25 nM and the Ki (DDR2 [3]) is reported as < 25 nM. The IC50 (DDR1 [4]) was < 25 nM.

`O=C(Nc1cccc(C(F)(F)F)c1)c1csc2c1CCN(Cc1cnc3cnccn13)C2` [Example 84, 6-(imidazo[1,2-a]pyrazin-3-ylmethyl)-N-(3-(trifluoromethyl)phenyl)-4,5,6,7-tetrahydrothieno[2,3-c]pyridine-3-carboxamide] was tested, and the IC50 (DDR2 [1]) was < 25 nM, the Ki (DDR1 [2]) was < 25 nM and the Ki (DDR2 [3]) was < 25 nM. The IC50 (DDR1 [4]) was < 25 nM.

`O=C(Nc1cccc(C(F)(F)F)c1)c1csc2c1CCN(Cc1cnc3[nH]ncc3c1)C2` [Example 85, 6-((1H-pyrazolo[3,4-b]pyridin-5-yl)methyl)-N-(3-(trifluoromethyl)phenyl)-4,5,6,7-tetrahydrothieno[2,3-c]pyridine-3-carboxamide] was tested, and the IC50 (DDR2 [1]) was < 25 nM, the Ki (DDR1 [2]) was < 25 nM and the Ki (DDR2 [3]) was < 25 nM. The IC50 (DDR1 [4]) was < 25 nM.

`O=C(Nc1cccc(C(F)(F)F)c1)c1csc2c1CCN(Cc1ccnc3[nH]ccc13)C2` [Example 86, 6-((1H-pyrrolo[2,3-b]pyridin-4-yl)methyl)-N-(3-(trifluoromethyl)phenyl)-4,5,6,7-tetrahydrothieno[2,3-c]pyridine-3-carboxamide] was tested, and the IC50 (DDR2 [1]) was < 25 nM, the Ki (DDR1 [2]) was < 25 nM and the Ki (DDR2 [3]) was < 25 nM. The IC50 (DDR1 [4]) was < 25 nM.

In the case of `O=C(Nc1cccc(C(F)(F)F)c1)c1csc2c1CCN(C(=O)c1cnc3cnccn13)C2` [Example 90, 6-(imidazo[1,2-a]pyrazine-3-carbonyl)-N-(3-(trifluoromethyl)phenyl)-4,5,6,7-tetrahydrothieno[2,3-c]pyridine-3-carboxamide], the IC50 (DDR2 [1]) is reported as < 25 nM, the Ki (DDR1 [2]) is reported as < 25 nM and the Ki (DDR2 [3]) is reported as < 25 nM. For the same compound, the IC50 (DDR1 [4]) was < 25 nM.

In the case of `O=C(Nc1cccc(C(F)(F)F)c1)c1csc2c1CCN(C(=O)c1cnn3ccncc13)C2` [Example 93, 6-(pyrazolo[1,5-a]pyrazine-3-carbonyl)-N-(3-(trifluoromethyl)phenyl)-4,5,6,7-tetrahydrothieno[2,3-c]pyridine-3-carboxamide], the IC50 (DDR2 [1]) is reported as < 25 nM, the Ki (DDR1 [2]) is reported as < 25 nM and the Ki (DDR2 [3]) is reported as < 25 nM. For the same compound, the IC50 (DDR1 [4]) was < 25 nM.
